Reference: patent publication US20210290580A1, “New use of carbamate ß phenylethanolamine analogues for enhancing intracellular clearance of LDL cholesterol and for combining therapy with statins to enhance the efficacy and reduce adverse effects” (priority 2018, published 2021)

Assays:
LDL receptors = experiment: LDL receptor expression, anti-LDLR immunofluorescence in liver cells; format: cell-based, Mouse; conditions: 24 hours; for Up-regulating of LDL receptors (Intensity of fluoresces) MEAN %: hepatic (AML12) cells, control = 100
Description: Cells were incubated with florescence labeled LDL to study the up-taking and metabolite of LDL cholesterol by the cells. LDL specific antibody were used to study LDL receptors expressed by the cells. […] After 24 hours of treatments, the cells were washed and fixed with paraformaldehyde. Cells were then incubated with anti-LDLR primary antibody with 1:200 dilution at room temperature for 4 hours. After washed, the second antibody Alexa Fluor 488 with 1:200 dilutions was added and incubated at room temperature for 2 hours. The cells were washed again before examined under fluorescent microscope. The fluorescence anti-body bound LDL receptors in green and either bound or internalized fluoresces labeled LDL in red were examined separately or after merging. Fluorescent microscope equipped with a digital camera (Axio Observer 7). Computer software was used to quantify the intensity of fluorescence, which is correlated with the amount of LDL and LDL receptors bounded to antibodies.

Mouse liver AML12 cells [1] = experiment: Intracellular cholesterol content in AML12 cells loaded with LDL; format: cell-based; conditions: for Intracellular cholesterol MEAN % (Synergistic Effects of Combining R-bambuterol and Statin): 10 μM (each drug 10 μM in the combination), LDL 40 μg/ml, AML12 cells, LDL Ctrl = 100; for Reduction of intercellular cholesterol, in words: 10 μM, Mouse liver AML12 cells
Description: Cells were then treated with different doses of R-bambuterol (R-BM) in the present of LDL (40 μg/ml). After 24 hours of incubation, total intracellular and extracellular cholesterol content were determined using Total Cholesterol Assay Kit E105 (Applygen Technologies Inc., Beijing, China) according to the manufacturer's protocol. The intracellular cholesterol is similar in control and LDL groups.

Mouse liver AML12 cells [2] = experiment: Up-taking of fluorescence labeled LDL by liver cells; format: cell-based; conditions: 10 μM and 20 μM, 24 hours, compared between groups
Description: Mouse liver AML12 cells were seeded in 24 well plates in DMEM/F12 and supplemented with 10% heat-inactivated fetal bovine serum. Cells were incubated with florescence labeled LDL to study the up-taking and metabolite of LDL cholesterol by the cells. LDL specific antibody were used to study LDL receptors expressed by the cells. […] The fluorescence anti-body bound LDL receptors in green and either bound or internalized fluoresces labeled LDL in red were examined separately or after merging. Fluorescent microscope equipped with a digital camera (Axio Observer 7). Computer software was used to quantify the intensity of fluorescence, which is correlated with the amount of LDL and LDL receptors bounded to antibodies.

Human liver HepG2 cells = experiment: Intracellular cholesterol content in HepG2 cells loaded with LDL (Total Cholesterol Assay Kit); format: cell-based; conditions: LDL 40 μg/ml, 24 hours, LDL control = 100
Description: Human liver HepG2 cells were seeded in six well plates in DMEM/F12 supplemented with 10% heat-inactivated fetal bovine serum. Cells were then treated with different doses of R-bambuterol (R-BM) in the present of LDL (40 μg/ml). After 24 hours of incubation, total intracellular and extracellular cholesterol content were determined using Total Cholesterol Assay Kit E105 (Applygen Technologies Inc., Beijing, China) according to the manufacturer's protocol.

[3] = test system: Pulmonary artery smooth muscle cell (PASMC)
Description: Cells were cultivated for 24 hours at room temperature. The cells then replaced again with FBS-free medium containing 10% CCK-8 reagent and cultivated for 3 hours in the dark.
A Multi-function micro plate reader (TriStar2S LB942) was used to measure the cell viability.
Cells added no drugs (0 μM) were used as control.

[4] = 20 μM (each drug 20 μM in the combination)

Structure (SMILES)	Up-regulating of LDL receptors (Intensity of fluoresces) MEAN % (LDL receptors; 10 μM)	Up-regulating of LDL receptors (Intensity of fluoresces) MEAN % (LDL receptors; [4])	Intracellular cholesterol MEAN % (Synergistic Effects of Combining R-bambuterol and Statin) (Mouse liver AML12 cells [1])	Reduction of intercellular cholesterol, in words (Mouse liver AML12 cells [1])	Increase in LDL receptors expression compared with statin treated groups (LDL receptors; AML12 cells)	Bound and intracellular fluorescence labeled LDL (Mouse liver AML12 cells [2])	Reduction of intercellular LDL cholesterol MEAN % (Human liver HepG2 cells; 5 μM)	Reduction of intercellular LDL cholesterol MEAN % (Human liver HepG2 cells; 10 μM)	Reduction of intercellular LDL cholesterol MEAN % (Human liver HepG2 cells; 20 μM)	Reduction of intercellular LDL cholesterol MEAN % (Human liver HepG2 cells; 40 μM)	Reduction of intercellular LDL cholesterol MEAN % (Human liver HepG2 cells; 80 μM)	Toxicity to the viability of PASMC, in words [3]
CC(C)c1c(C(=O)Nc2ccccc2)c(-c2ccccc2)c(-c2ccc(F)cc2)n1CC[C@@H](O)C[C@@H](O)CC(=O)O [Statin, Atorvastatin]	159.1%	140.2%	95.3%	little effects on intercellular cholesterol	–	–	–	–	–	–	–	–
CN(C)C(=O)Oc1cc(OC(=O)N(C)C)cc(C(O)CNC(C)(C)C)c1 (stereo not shown) [R-BM, R-bambuterol]	202.9%	337.2%	94.5%	less reduction of intercellular cholesterol	twice as much as seen in statin treated groups	significantly more bound and intracellular fluorescence labeled LDL	94.07%	69.26%	28.54%	36.04%	21.02%	no toxicity
